Laboratory results taken from ChEMBL document CHEMBL1201862, “PubChem BioAssay data set” (2004).
Calls of active or inactive are those of the source.

Columns and labels:
[1] = molecular target: Lysosomal acid glucosylceramidase (Homo sapiens, UniProt P04062); test: Dose response cell-based high throughput screening assay to identify enhancers of beta-glucosidase activity. [Related pubchem assays: 784 ]; type: functional
NS3 = NS3 (Hepatitis C virus, UniProt A3EZJ3); test: PubChem AID 2173; design: species or system Hepacivirus hominis
[2] = molecular target: T1, Endoribonuclease toxin MazF (Escherichia coli K-12, UniProt P0AE70); test: MazF toxin RNase activators, dose response, biochemical, fluorescence, single-stranded RNA substrate, uHTS hits (AID 588481); type: functional
T1 sequence (P0AE70 whole entry): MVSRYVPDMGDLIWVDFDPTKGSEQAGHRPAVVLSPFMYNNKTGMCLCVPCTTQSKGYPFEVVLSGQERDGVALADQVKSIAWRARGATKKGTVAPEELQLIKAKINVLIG

[3] = molecular target: T2, Heat shock protein HSP 90-alpha (Homo sapiens, UniProt P07900); type: functional, organism-based
[4] = molecular target: T3, Heat shock factor protein 1 (Mus musculus, UniProt P38532); test: HSF1 potentiators in luciferase reporter cells, confirmation, cell-based, NIH3T3, luminescence, dose retest (AID 435004); type: functional;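 also: stress induced by proteasome inhibitor MG132 added 30 min after compound; luciferase reporter driven by HSF1 response element in NIH3T3 cells; actives raise luminescence as potentiators of the MG132 stress response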
T3 sequence (P38532 whole entry): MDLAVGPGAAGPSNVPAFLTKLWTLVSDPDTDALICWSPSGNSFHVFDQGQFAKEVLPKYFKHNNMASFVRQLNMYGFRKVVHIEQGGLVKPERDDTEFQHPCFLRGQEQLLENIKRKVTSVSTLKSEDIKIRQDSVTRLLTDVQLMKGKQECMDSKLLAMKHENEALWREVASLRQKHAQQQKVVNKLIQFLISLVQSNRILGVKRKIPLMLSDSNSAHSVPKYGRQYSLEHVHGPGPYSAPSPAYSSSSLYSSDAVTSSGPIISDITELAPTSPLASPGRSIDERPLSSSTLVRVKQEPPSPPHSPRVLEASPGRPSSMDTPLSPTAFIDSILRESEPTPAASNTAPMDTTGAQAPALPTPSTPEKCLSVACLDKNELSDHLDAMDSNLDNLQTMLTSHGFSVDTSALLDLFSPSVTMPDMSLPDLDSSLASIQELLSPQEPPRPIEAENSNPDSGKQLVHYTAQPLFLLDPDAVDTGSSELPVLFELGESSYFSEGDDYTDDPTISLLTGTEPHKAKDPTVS

[5] = molecular target: T1, Endoribonuclease toxin MazF; test: fluorescent RNA oligo signal without MazF, dose response, counter-screen for MazEF activator project, biochemical, fluorescence, single-stranded RNase substrate (AID 588502); type: functional
[6] = molecular target: Glucose-6-phosphate 1-dehydrogenase (Homo sapiens, UniProt P11413); test: human G6PD enzyme inhibitors, dose response, selectivity assay for P. falciparum G6PD inhibitor project, biochemical, fluorescence (AID 504792); type: functional
Caspase-6 = molecular target: T4, Caspase-6 (Homo sapiens, UniProt P55212); test: human caspase-6 inhibitors, dose response, biochemical, VEID-R110 fluorescence, cherry-pick (AID 720632)
T4 sequence (P55212 whole entry): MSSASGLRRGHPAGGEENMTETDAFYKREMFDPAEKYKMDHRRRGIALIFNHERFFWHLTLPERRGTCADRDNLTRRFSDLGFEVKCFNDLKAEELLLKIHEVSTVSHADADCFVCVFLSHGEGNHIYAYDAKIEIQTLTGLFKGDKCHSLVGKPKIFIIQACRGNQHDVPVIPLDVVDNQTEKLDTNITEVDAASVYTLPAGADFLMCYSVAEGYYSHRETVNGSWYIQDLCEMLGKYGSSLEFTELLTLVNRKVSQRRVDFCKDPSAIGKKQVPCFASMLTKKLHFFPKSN

[7] = cytotoxicity toward NIH3T3 fibroblasts, dose response, counter-screen, cell-based, ATP luminescence, mouse fibroblasts (AID 2010); type: functional;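 also: cells exposed to compound for about 90 hours before reading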
[8] = inhibitors of intracellular T. cruzi replication, confirmation, NIH3T3 host cells, beta-gal luminescence (AID 2044); type: functional, cell-based;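 also: intracellular parasites grown in NIH/3T3 mouse fibroblasts as host cells; luminescent beta-galactosidase reporter signal from transgenic T. cruzi replicating inside host cells; inhibitors lower the luminescence signal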
cells [9] = test: cells
[10] = inhibition of ADP-Glo detection reagents, dose response, artefact control for CDK5 inhibitor project, biochemical, luminescence, cherry-picked samples, set 2 (AID 504546); type: functional
[11] = molecular target: Cyclin-dependent kinase 5/CDK5 activator 1 (Homo sapiens, UniProt Q00535); test: CDK5/p35 kinase inhibitors, dose response, biochemical, cherry-picked samples, set 2 (AID 504545)
[12] = molecular target: T5, Microphthalmia-associated transcription factor (Homo sapiens, UniProt O75030); test: TRPM1 promoter luciferase signal decrease, dose response, MITF inhibitor project, cell-based, SK-MEL-5, cherry-picked, set 3 (AID 493073); type: functional
T5 sequence (O75030 whole entry): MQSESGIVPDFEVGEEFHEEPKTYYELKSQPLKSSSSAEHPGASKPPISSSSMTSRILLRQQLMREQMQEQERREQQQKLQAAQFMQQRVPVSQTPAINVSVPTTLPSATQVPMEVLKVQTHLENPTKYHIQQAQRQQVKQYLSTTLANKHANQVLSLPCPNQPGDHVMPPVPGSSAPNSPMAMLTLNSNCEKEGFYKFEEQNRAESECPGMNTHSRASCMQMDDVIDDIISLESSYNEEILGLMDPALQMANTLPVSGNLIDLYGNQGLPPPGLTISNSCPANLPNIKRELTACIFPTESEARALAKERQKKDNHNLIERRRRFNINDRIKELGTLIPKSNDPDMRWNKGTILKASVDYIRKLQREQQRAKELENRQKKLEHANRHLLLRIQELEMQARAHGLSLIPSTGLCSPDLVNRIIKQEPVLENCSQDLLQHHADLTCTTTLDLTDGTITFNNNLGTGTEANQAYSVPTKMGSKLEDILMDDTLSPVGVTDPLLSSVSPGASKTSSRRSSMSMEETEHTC

HEK293 = test: inhibitors of LMP1-driven NF-kB reporter, dose response, cell-based, HEK293, luciferase, cherry-pick (AID 588343); type: functional; details: Homo sapiens
[13] = molecular target: Mitogen-activated protein kinase 10 (Homo sapiens, UniProt P53779); test: Dose response biochemical screening assay for inhibitors of c-Jun N-Terminal Kinase 3 (JNK3). [Related pubchem assays: 746 ]
[14] = molecular target: T2, Heat shock protein HSP 90-alpha; test: Luminescence-based dose response biochemical high throughput screening assay for inhibitors of the Heat Shock Protein 90 (HSP90). [Related pubchem assays: 1831 (Summary AID.), 1846 (Confirmation screen.), 1789 (Primary screen.)]
[15] = Luminescence Cell-Based Dose Confirmation HTS to Identify Activators of 5'UTR Stem-Loop Driven Alpha-Synuclein mRNA Translation in H4 Neuroglioblastoma Cells. [Related pubchem assays: 1829 (Project Summary), 1814 (Primary HTS)]; type: functional
[16] = Luminescence Cell-Based Dose Response HTS to Identify Activators of Luciferase Translation or Activity in H4 […] Cells. [Related pubchem assays: 1829 (Project Summary), 1814 (Primary HTS)]; type: functional
H4 = test: Luminescence Cell-Based Dose Response HTS to Identify Activators of 5'UTR Stem-Loop Driven Prion Protein mRNA Translation in H4 Neuroglioblastoma Cells. [Related pubchem assays: 1829 (Project Summary), 1814 (Primary HTS)]; type: functional; details: Homo sapiens
cells [17] = test: cells; remark: listed apart in the source
Protein Tat = Protein Tat (Human immunodeficiency virus type 1 group M subtype B (isolate HXB2)(HIV-1), UniProt P04608); type: functional;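 also: tat binding to TAR RNA read out by fluorescence polarization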
[18] = Vero cell cytotoxicity, dose response, cytotoxicity control for Vif-APOBEC3G degradation inhibitor project, Vero cells (AID 1117358); type: functional; details: Human immunodeficiency virus 1, Vero
Large T antigen = Large T antigen (Simian virus 40, UniProt P03070); type: functional, Betapolyomavirus macacae;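 also: Confirmatory-stage PubChem screen for compounds that inhibit SV40 T antigen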
Cytochrome P450 2D6 = Cytochrome P450 2D6 (Homo sapiens, UniProt P10635);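 also: CYP2D6 member of a cytochrome P450 panel assay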
[19] = A Cell Based Secondary Assay To Explore Cytotoxicity of Compounds that Sensitize Mycobacterium Tuberculosis to Beta-Lactam Antibiotics.; type: functional
[20] = cytotoxicity toward Colo320 cells – cell-based, CellTiter-Glo luminescence, IC50, dose response (AID 1117334); type: functional; details: COLO 320
[21] = CellTiter-Glo luminescent dose response of DLD-1 viability loss (AID 1117352); type: functional
[22] = HeLa 4N DNA content increase, dose response, cell-based, IC50 (AID 1117351); type: functional
[23] = cytotoxicity toward HCT116 cells – cell-based, CellTiter-Glo luminescence, IC50, dose response (AID 1117332); type: functional; details: HCT-116
[24] = Concentration-dependent survival of SW480 colon cancer line, luminescence detection with CellTiter-Glo, half-maximal inhibitory concentration (AID 1117338); type: functional
[25] = RKO cell viability reduction, dose response, CellTiter-Glo luminescence (AID 1117322); type: functional
[26] = cytotoxicity toward HT-29 cells – cell-based, CellTiter-Glo luminescence, IC50, dose response (AID 1117330); type: functional
[27] = HeLa 2N DNA content increase, dose response, cell-based, IC50 (AID 1117349); type: functional
[28] = molecular target: T6, Voltage-gated N-type calcium channel alpha-1B subunit/Amyloid beta A4 precursor protein-binding family A member 1 (Homo sapiens, UniProt Q00975+Q02410); test: disruptors of Mint-PDZ/N-type channel peptide interaction – biochemical, HTRF, set 2, SAR follow-up (AID 434980); type: functional
[29] = molecular target: T6, Voltage-gated N-type calcium channel alpha-1B subunit/Amyloid beta A4 precursor protein-binding family A member 1; test: disruptors of Mint-PDZ/N-type channel peptide interaction – biochemical, HTRF, SAR follow-up (AID 2489); type: functional
[30] = molecular target: Voltage-gated inwardly rectifying potassium channel KCNH2 (Homo sapiens, UniProt Q12809); test: hERG protection from proarrhythmic block, potency, dose response, cell-based, thallium flux (AID 2121); type: ADME
[31] = HEp-2 cell cytotoxicity, dose response, cytotoxicity control for RSV inhibitor project, HTS (AID 2410); type: functional; details: human respiratory syncytial virus
Vero = test: cells; type: functional, cell-based; details: Chlorocebus sabaeus
Streptococcus = test: Luminescence Microorganism-Based Dose Response Follow up to Identify Compounds Cytotoxic to Streptococcus. [Related pubchem assays: 1677 (Project Summary), 1915, 1914, 1902 (Retest at Dose), 1900 (Counter Screen), 1662 (Primary HTS)]; type: functional, organism-based
[32] = molecular target: Peroxisome proliferator-activated receptor gamma/Nuclear receptor corepressor 2 (Homo sapiens, UniProt P37231+Q9Y618); test: Counterscreen for NR2E3 inverse agonists: TR-FRET-based biochemical high throughput dose response assay to identify inverse agonists of the interaction between peroxisome proliferator-activated receptor gamma (PPARg) and nuclear receptor co-repressor 2 (NCOR2).; type: functional
[33] = molecular target: Photoreceptor-specific nuclear receptor (Homo sapiens, UniProt Q9Y5X4); test: NR2E3 inverse agonists, dose response, biochemical, TR-FRET (AID 463256); type: functional

T6 sequence (Q00975 whole entry): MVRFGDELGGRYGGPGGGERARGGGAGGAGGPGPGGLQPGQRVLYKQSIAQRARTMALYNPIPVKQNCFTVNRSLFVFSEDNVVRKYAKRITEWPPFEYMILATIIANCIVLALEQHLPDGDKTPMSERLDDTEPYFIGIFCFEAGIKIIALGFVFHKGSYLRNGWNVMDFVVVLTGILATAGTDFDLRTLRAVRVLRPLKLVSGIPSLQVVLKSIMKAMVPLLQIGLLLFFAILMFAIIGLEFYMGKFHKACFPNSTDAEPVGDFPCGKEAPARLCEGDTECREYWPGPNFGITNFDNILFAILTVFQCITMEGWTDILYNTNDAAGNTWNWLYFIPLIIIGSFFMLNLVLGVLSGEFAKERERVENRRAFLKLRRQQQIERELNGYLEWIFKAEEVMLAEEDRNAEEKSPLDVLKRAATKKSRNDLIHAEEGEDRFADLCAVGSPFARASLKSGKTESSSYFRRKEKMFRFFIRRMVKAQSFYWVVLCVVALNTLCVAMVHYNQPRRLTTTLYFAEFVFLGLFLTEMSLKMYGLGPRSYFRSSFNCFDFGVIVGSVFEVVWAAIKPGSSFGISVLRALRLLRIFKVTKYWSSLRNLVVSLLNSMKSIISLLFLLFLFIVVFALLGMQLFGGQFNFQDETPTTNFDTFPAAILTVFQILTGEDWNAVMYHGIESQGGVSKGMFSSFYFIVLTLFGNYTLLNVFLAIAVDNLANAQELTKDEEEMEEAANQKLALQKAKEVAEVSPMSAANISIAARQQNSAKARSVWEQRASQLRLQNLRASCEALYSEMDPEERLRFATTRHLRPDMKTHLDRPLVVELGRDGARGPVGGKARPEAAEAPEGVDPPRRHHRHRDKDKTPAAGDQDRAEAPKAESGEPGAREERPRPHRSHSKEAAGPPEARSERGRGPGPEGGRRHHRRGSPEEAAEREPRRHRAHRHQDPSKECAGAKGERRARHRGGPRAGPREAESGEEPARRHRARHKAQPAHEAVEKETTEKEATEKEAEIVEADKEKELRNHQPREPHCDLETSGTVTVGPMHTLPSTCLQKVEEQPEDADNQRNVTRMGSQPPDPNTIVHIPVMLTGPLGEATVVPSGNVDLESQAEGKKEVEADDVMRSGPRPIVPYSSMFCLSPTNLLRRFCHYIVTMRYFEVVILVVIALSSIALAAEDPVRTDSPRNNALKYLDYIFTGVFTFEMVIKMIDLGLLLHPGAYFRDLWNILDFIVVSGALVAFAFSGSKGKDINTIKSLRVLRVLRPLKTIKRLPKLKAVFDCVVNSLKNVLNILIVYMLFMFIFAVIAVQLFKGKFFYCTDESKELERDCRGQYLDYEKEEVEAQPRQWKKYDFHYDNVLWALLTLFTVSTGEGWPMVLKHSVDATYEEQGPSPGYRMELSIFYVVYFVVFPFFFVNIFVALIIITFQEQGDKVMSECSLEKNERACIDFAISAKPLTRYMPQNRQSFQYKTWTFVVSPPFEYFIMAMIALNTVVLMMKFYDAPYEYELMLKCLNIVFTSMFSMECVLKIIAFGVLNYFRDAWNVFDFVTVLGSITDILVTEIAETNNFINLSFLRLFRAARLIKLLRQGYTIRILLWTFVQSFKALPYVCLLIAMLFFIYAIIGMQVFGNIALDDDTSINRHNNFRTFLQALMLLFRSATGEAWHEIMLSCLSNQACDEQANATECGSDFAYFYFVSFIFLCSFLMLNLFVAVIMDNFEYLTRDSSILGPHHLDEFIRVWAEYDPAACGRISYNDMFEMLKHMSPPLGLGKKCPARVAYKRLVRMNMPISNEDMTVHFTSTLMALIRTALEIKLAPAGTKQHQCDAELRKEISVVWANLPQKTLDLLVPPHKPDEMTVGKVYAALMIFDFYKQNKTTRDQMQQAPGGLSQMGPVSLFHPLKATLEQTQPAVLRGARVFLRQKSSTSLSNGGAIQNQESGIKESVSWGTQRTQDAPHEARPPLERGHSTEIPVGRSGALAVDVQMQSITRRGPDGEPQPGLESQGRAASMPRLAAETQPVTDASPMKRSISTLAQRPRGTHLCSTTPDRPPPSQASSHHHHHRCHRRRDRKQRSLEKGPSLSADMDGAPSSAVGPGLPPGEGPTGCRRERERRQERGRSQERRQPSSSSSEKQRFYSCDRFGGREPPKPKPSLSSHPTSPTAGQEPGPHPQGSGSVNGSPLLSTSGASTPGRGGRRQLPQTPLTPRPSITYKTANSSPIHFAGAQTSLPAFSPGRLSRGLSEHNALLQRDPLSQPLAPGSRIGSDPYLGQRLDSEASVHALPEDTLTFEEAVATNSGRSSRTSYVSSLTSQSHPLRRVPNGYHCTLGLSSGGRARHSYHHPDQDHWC
T6 sequence (Q02410 whole entry): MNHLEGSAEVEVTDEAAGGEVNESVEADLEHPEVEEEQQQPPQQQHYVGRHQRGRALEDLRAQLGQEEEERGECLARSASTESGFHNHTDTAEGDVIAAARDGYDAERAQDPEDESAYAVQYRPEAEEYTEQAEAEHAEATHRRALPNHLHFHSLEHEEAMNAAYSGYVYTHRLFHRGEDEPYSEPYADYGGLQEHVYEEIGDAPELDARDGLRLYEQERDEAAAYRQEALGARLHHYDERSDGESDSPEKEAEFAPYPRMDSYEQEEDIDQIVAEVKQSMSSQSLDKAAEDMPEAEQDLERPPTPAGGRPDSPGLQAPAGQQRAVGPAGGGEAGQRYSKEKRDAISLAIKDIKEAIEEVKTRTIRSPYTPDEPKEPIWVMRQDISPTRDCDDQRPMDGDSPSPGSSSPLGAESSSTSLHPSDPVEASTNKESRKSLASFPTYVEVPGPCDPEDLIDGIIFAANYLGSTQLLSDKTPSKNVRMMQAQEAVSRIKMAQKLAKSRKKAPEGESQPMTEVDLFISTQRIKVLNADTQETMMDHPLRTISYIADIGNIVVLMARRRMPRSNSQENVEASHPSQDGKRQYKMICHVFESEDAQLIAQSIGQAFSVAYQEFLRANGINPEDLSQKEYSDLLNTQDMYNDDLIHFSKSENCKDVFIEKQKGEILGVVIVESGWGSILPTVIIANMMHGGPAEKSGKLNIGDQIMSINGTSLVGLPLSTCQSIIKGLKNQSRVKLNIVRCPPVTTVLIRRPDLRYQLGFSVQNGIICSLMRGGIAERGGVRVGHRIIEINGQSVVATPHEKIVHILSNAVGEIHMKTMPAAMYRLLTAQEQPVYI
Chain of Lysosomal acid glucosylceramidase (P04062 whole entry): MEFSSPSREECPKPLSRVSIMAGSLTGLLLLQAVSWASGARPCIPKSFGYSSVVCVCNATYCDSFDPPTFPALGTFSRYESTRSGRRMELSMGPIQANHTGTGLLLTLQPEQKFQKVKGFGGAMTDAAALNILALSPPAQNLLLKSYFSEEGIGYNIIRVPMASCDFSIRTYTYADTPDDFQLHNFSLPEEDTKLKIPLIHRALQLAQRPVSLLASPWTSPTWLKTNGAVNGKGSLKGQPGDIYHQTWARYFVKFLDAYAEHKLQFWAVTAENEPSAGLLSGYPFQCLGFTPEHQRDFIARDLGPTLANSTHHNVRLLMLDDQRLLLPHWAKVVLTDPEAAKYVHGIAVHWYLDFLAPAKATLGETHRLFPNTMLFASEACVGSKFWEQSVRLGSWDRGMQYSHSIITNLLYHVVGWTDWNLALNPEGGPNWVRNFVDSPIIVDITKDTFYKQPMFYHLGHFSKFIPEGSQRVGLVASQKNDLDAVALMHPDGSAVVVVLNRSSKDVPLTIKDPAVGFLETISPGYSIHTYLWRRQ
Chain of Cytochrome P450 2D6 (P10635 whole entry): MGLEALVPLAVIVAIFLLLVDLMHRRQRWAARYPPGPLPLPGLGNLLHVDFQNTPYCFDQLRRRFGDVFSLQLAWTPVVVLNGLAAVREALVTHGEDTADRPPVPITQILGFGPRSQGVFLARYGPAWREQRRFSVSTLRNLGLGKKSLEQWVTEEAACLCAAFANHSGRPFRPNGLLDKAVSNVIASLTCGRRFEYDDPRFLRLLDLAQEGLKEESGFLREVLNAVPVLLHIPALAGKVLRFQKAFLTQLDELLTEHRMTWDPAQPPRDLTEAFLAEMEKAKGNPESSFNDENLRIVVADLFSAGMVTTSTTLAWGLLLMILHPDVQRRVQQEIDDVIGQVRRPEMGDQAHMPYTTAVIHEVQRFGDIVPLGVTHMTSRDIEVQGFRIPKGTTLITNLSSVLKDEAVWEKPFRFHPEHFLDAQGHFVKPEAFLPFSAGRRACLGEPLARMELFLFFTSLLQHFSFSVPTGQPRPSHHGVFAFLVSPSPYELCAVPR
Chain of Mitogen-activated protein kinase 10 (P53779 whole entry): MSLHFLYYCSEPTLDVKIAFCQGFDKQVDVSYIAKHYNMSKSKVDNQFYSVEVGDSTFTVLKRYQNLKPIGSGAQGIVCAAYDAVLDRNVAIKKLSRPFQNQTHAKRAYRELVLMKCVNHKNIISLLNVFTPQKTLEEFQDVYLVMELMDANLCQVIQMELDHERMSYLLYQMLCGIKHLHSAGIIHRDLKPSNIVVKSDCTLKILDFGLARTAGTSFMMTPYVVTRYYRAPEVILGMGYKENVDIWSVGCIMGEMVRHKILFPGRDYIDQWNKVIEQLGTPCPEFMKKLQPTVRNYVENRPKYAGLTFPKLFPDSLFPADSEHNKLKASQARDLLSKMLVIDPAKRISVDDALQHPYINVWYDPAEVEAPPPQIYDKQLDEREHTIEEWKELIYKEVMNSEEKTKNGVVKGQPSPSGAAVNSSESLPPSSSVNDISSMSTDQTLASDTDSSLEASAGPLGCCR
Chain of Protein Tat (P04608 whole entry): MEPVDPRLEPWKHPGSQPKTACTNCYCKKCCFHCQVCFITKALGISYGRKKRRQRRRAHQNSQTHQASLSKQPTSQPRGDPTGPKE

## Cc1cccc2sc(NC(=O)CN(C)S(=O)(=O)c3cccs3)nc12
[1]
  EC50: > 10 µM (not active)

## CC1=CN2C(=N)/C(=C/c3ccc([N+](=O)[O-])o3)C(=O)N=C2S1
NS3
  IC50: 9.08 µM (active)
[2]
  EC50: > 99 µM (inactive)
[3]
  AC50: 2.57 µM (active)
[4]
  EC50: 30.1 µM (inconclusive)
[5]
  EC50: 23.8 µM (inactive)
[6]
  IC50: > 80 µM (inactive)
Caspase-6
  AC50: 5.85 µM (active)

## CCOC(=O)C1CCCN(Cc2ccc(OCc3ccccc3)c(OC)c2)C1 (centres undefined)
[7]
  EC50: > 60 µM (not active)
[8]
  EC50: < 100 nM (active)
Cells [9]
  EC50: 10 nM (active)

## N=C(NOC(=O)c1ccccc1)c1ccccn1
[10]
  AC50: 37.5 µM (active)
[11]
  AC50: 20.6 µM (active)
[12]
  AC50: 11.9 µM (active)
HEK293
  AC50: 8.6 µM (active)

## Cc1ccc2c(C)nc(NC3=NCN(Cc4ccccc4)CN3)nc2c1
[13]
  IC50: > 93.1 µM (not active)

## O=S(=O)(Cc1ccccc1)N(O)c1ccccc1
[14]
  IC50: 913 nM (active)

## c1ccc(CNc2ncnc3c2cnn3-c2ccccc2)cc1
[13]
  IC50: 75.8 µM (not active)
[15]
  EC50: > 120 µM (not active)
[16]
  EC50: 3.43 µM (active)
H4
  EC50: > 120 µM (not active)

## Nc1nnnn1/N=C/c1ccc(O)cc1
Cells [17]
  IC50: 2.58 µM (active)

## CCN(C(=O)CN1CCN(c2ccc(O)cc2)CC1)c1c(N)n(Cc2ccccc2)c(=O)[nH]c1=O
Protein Tat
  IC50: 68.5 µM (inconclusive)
[18]
  CC50: > 40 µM (active)
Large T antigen
  IC50: 7.74 µM (active)

## CCCCN(CC)S(=O)(=O)c1ccc(C(=O)Nc2nnc(CSC)o2)cc1
[1]
  EC50: > 10 µM (not active)
Cytochrome P450 2D6
  AC50: 35.5 µM (inconclusive)
[19]
  CC50: 13.9 µM (active)

## CC(C)(C)[C@H]1CC[C@H](CC2=C(O)C(=O)c3ccccc3C2=O)CC1 [BUPARVAQUONE]
[20]
  IC50: 255 nM (active)
[21]
  IC50: 218 nM (active)
[22]
  IC50: > 10 µM (inactive)
[23]
  IC50: 227 nM (active)
[24]
  IC50: 205 nM (active)
[25]
  IC50: 133 nM (active)
[26]
  IC50: 3.39 µM (active)
[27]
  IC50: > 10 µM (inactive)

## CC12C=CC(C)(O1)C1C(=O)N(c3ccc4c(c3)OCO4)C(=O)C12 (centres undefined)
[28]
  IC50: > 56.8 µM (inactive)
[29]
  IC50: > 56.8 µM (inactive)

## Cc1ccc(C(=O)CC(=O)COc2ccc(Cl)cc2C)cc1
[30]
  EC50: 820 nM (active)

## CCC(C)N1C(=O)S/C(=C/c2ccc(Sc3nc4ccccc4[nH]3)o2)C1=O (centres undefined)
[18]
  CC50: 28.7 µM (active)
Cytochrome P450 2D6
  AC50: 3.98 µM (inconclusive)

## Cc1nn(Cc2c(Cl)cccc2Cl)c(C)c1NC(=O)c1cc(C(C)C)on1
[31]
  CC50: 16.8 µM (active)
Vero
  IC50: 10.5 µM (active)
Cells [17]
  IC50: 11.3 µM (active)

## O=C(NCCc1cccc(Cl)c1)c1cc(-c2ccco2)nc2ccccc12
[28]
  IC50: > 56.8 µM (inactive)
[29]
  IC50: > 56.8 µM (inactive)

## CN(C)c1ccc(C(=O)n2c3ccccc3c3ccccc32)cc1
Streptococcus
  EC50: > 500 µM (not active)

## COc1ccc2cc3cc(C(=O)NCc4cccs4)oc3nc2c1
[32]
  IC50: 12.9 µM (not active)
[33]
  IC50: 10.7 µM (not active)
